Test results reported in patent US8889668B2, “Oxadiazole diaryl compounds” (Merck Serono SA, priority 2007, dated 2014).
pEC50: −log10 of the molar value.

molecular target: S1P1 (Homo sapiens (Human), UniProt P21453); assay: 35S-GTPγS binding, membranes from CHO cells expressing S1P1; format: biochemical; settings: 60 min 30° C., read-out: S1P1 GTPgS EC50
Sequence (P21453 whole entry, species assumed): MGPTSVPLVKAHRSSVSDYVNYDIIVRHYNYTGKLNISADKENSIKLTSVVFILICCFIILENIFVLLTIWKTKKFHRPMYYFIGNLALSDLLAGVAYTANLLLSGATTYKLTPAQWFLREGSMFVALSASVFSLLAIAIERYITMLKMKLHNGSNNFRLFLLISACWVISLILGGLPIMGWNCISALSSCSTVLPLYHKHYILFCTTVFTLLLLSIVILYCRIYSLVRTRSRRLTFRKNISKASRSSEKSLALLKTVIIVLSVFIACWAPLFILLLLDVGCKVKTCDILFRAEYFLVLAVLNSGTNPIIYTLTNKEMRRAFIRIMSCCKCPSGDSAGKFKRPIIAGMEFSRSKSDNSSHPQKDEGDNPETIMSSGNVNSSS

Row | pEC50 | Structure (SMILES)
1 | 8.00 | COc1ccc(F)cc1-c1noc(-c2ccc(N3CCCCC3)c(C)c2)n1 [Compound I68, 1-{4-[3-(5-fluoro-2-methoxyphenyl)-1,2,4-oxadiazol-5-yl]-2-methylphenyl}piperidine]
2 | 5.35 | CC1CCC(C)N1c1ccc(-c2nc(-c3ccccc3OC(F)(F)F)no2)cc1[N+](=O)[O-] (stereo not drawn) [Compound I38, 5-[4-(2,5-dimethylpyrrolidin-1-yl)-3-nitrophenyl]-3-[2-(trifluoromethoxy)phenyl]-1,2,4-oxadiazole]
3 | 6.87 | O=[N+]([O-])c1cc(-c2nc(-c3ccccc3OC(F)(F)F)no2)ccc1N1CCOCC1 [Compound I17, 4-(2-nitro-4-{3-[2-(trifluoromethoxy)phenyl]-1,2,4-oxadiazol-5-yl}phenyl)morpholine]
4 | 6.47 | COc1ccc(F)cc1-c1noc(-c2ccc(-c3cccnc3C)c(C)c2)n1 [Compound I73, 3-{4-[3-(5-fluoro-2-methoxyphenyl)-1,2,4-oxadiazol-5-yl]-2-methylphenyl}-2-methylpyridine]
5 | 6.53 | COCCN(CCOC)c1ccc(-c2nc(-c3ccccc3OC)no2)cc1[N+](=O)[O-] [Compound I52, N,N-bis(2-methoxyethyl)-4-[3-(2-methoxyphenyl)-1,2,4-oxadiazol-5-yl]-2-nitroaniline]
6 | 5.93 | COc1ccc(F)cc1-c1noc(-c2ccc(N3CCCCC3C)nc2)n1 (stereo not drawn) [Compound I75, 5-[3-(5-fluoro-2-methoxyphenyl)-1,2,4-oxadiazol-5-yl]-2-(2-methylpiperidin-1-yl)pyridine]
7 | 6.89 | Cc1cc(-c2nc(-c3ccccc3OC(F)(F)F)no2)ccc1N1CCOCC1 [Compound I65, 4-(2-methyl-4-{3-[2-(trifluoromethoxy)phenyl]-1,2,4-oxadiazol-5-yl}phenyl)morpholine]
8 | 7.62 | COc1ccccc1-c1noc(-c2ccc(N3CCCCC3)c(C)c2)n1 [Compound I67, 1-{4-[3-(2-methoxyphenyl)-1,2,4-oxadiazol-5-yl]-2-methylphenyl}piperidine]
9 | 6.94 | Nc1cc(-c2nc(-c3ccccc3OC(F)(F)F)no2)ccc1N1CCCC(F)(F)C1 [Compound I41, 2-(3,3-difluoropiperidin-1-yl)-5-{3-[2-(trifluoromethoxy)phenyl]-1,2,4-oxadiazol-5-yl}aniline]
10 | 6.18 | COc1ccc(F)cc1-c1noc(-c2ccc(-c3ccccc3C)c(C(=O)O)c2)n1 [Compound I79, 4-[3-(5-fluoro-2-methoxyphenyl)-1,2,4-oxadiazol-5-yl]-2′-methylbiphenyl-2-carboxylic acid]
11 | 6.28 | COCC1CCCN1c1ncc(-c2nc(-c3cc(F)ccc3OC)no2)cc1C (stereo not drawn) [Compound I76, 5-[3-(5-fluoro-2-methoxyphenyl)-1,2,4-oxadiazol-5-yl]-2-[2-(methoxymethyl)pyrrolidin-1-yl]-3-methylpyridine]
12 | 6.52 | COc1ccc(-c2ccc(-c3nc(-c4ccccc4OC(F)(F)F)no3)cc2C)c(OC)c1 [Compound I56, 5-(2′,4′-dimethoxy-2-methylbiphenyl-4-yl)-3-[2-(trifluoromethoxy)phenyl]-1,2,4-oxadiazole]
13 | 7.41 | Cc1cc(-c2nc(-c3ccccc3OC(F)(F)F)no2)ccc1N1CCCCC1 [Compound I58, 1-(2-methyl-4-{3-[2-(trifluoromethoxy)phenyl]-1,2,4-oxadiazol-5-yl}phenyl)piperidine]
14 | 6.72 | Cc1cc(-c2nc(-c3ccccc3OC(F)(F)F)no2)ccc1-c1c(C)noc1C [Compound I49, 5-[4-(3,5-dimethylisoxazol-4-yl)-3-methylphenyl]-3-[2-(trifluoromethoxy)phenyl]-1,2,4-oxadiazole]
15 | 7.24 | O=[N+]([O-])c1cc(-c2nc(-c3ccccc3OC(F)(F)F)no2)ccc1N1CCCCC1 [Compound I31, 1-(2-nitro-4-{3-[2-(trifluoromethoxy)phenyl]-1,2,4-oxadiazol-5-yl}phenyl)piperidine]
